Data on 53 molecules can be found in patent US8404718B2, “Combinations of pyrazole kinase inhibitors” (Astex Therapeutics Limited, priority 2005, dated 2013).

For assay [1], the system named is human colon carcinoma cell line HCT 116. Put plainly: Anti-proliferative activity, Alamar Blue assay. It is filed as cell-based. Conditions: 72 hours compound incubation, read-out: IC50, inhibition of cell growth, HCT 116. As for the experimental part: The anti-proliferative activities of the combinations of the invention, as well as the individual components of the combinations, are determined by measuring the ability of the compounds to inhibition of cell growth in a number of cell lines. Inhibition of cell growth is measured using the Alamar Blue assay (Nociari, M. M, Shalev, A., Benias, P., Russo, C. Journal of Immunological Methods 1998, 213, 157-167). The method is based on the ability of viable cells to reduce resazurin to its fluorescent product resorufin. For each proliferation assay cells are plated onto 96 well plates and allowed to recover for 16 hours prior to the addition of inhibitor compounds for a further 72 hours. At the end of the incubation period 10% (v/v) Alamar Blue is added and incubated for a further 6 hours prior to determination of fluorescent product at […]. In the case of the non-proliferating cell assay cells are maintained at confluence for 96 hour prior to the addition of inhibitor compounds for a further 72 hours. The number of viable cells is determined by Alamar Blue assay as before. All cell lines are obtained from ECACC (European Collection of cell Cultures).
For orientation: Resazurin is reduced to fluorescent resorufin, in cell work by metabolically active cells.

Assay [2] deals with Activated CDK2/CyclinA (Homo sapiens, UniProt P24941). The experiment in a line: Activated CDK2/CyclinA kinase inhibitory activity assay (IC50), Example 250A. It is filed as biochemical. As for the experimental part:
Compounds of the invention were tested for kinase inhibitory activity using the following protocol.
The reaction is allowed to proceed for 2 to 4 hours before being stopped with an excess of ortho-phosphoric acid (5 μl at 2%).
γ^33P-ATP which remains unincorporated into the histone H1 is separated from phosphorylated histone H1 on a Millipore MAPH filter plate. The wells of the MAPH plate are wetted with 0.5% orthophosphoric acid, and then the results of the reaction are filtered with a Millipore vacuum filtration unit through the wells. Following filtration, the residue is washed twice with 200 μl of 0.5% orthophosphoric acid. Once the filters have dried, 20 μl of Microscint 20 scintillant is added, and then counted on a Packard Topcount for 30 seconds.

A word on the IC50: it is the midpoint of a concentration-inhibition curve. In the case of `O=C(Nc1ccc(F)cc1)c1n[nH]cc1NC(=O)C(F)(F)F` [Example 3, 4-(2,2,2-Trifluoro-acetylamino)-1H-pyrazole-3-carboxylic acid (4-fluoro-phenyl)-amide], in assay [1], the concentration for half-maximal inhibition (IC50) is under 100 µM. Regarding `O=C(CCc1ccc(Cl)cc1)Nc1c[nH]nc1C(=O)Nc1ccc(F)cc1` [Example 10, 4-[3-(4-Chloro-phenyl)-propionylamino]-1H-pyrazole-3-carboxylic acid (4-fluoro-phenyl)-amide], the IC50 in assay [1] is under 20 µM.

For the molecule `COc1ccccc1C(=O)Nc1c[nH]nc1C(=O)Nc1ccc(F)cc1` [Example 25, 4-(2-Methoxy-benzoylamino)-1H-pyrazole-3-carboxylic acid (4-fluoro-phenyl)-amide], the half-maximal inhibitory concentration (IC50) in assay [1] is under 20 µM. As for `O=C(Nc1ccc(F)cc1)c1n[nH]cc1NC(=O)C1CCCCC1` [Example 27, 4-(Cyclohexanecarbonyl-amino)-1H-pyrazole-3-carboxylic acid (4-fluoro-phenyl)-amide], the 50% inhibitory concentration (IC50) in assay [1] was under 20 µM.

For `O=C(CO)Nc1c[nH]nc1C(=O)Nc1ccc(F)cc1` [Example 29, 4-(2-Hydroxy-acetylamino)-1H-pyrazole-3-carboxylic acid (4-fluoro-phenyl)-amide], the IC50 in assay [1] was under 100 µM. As to `O=C(Nc1c[nH]nc1C(=O)Nc1ccc(F)cc1)c1ccco1` [Example 38, 4-[(Furan-2-carbonyl)-amino]-1H-pyrazole-3-carboxylic acid (4-fluoro-phenyl)-amide], the IC50 in assay [1] is under 100 µM. Turning to `O=C(Nc1c[nH]nc1C(=O)Nc1ccc(F)cc1)c1cnc[nH]1` [Example 39, 4-[(3H-Imidazole-4-carbonyl)-amino]-1H-pyrazole-3-carboxylic acid (4-fluoro-phenyl)-amide], the IC50 in assay [1] was under 100 µM. For the molecule `O=C(Nc1c[nH]nc1C(=O)Nc1ccc(F)cc1)c1ccc(CO)cc1` [Example 44, 4-(4-Hydroxymethyl-benzoylamino)-1H-pyrazole-3-carboxylic acid (4-fluoro-phenyl)-amide], the 50% inhibitory concentration (IC50) in assay [1] is under 20 µM. Same read-out and setting: in the case of `Cc1ccccc1C(=O)Nc1c[nH]nc1C(=O)Nc1ccc(F)cc1` [Example 46, 4-(2-Methyl-benzoylamino)-1H-pyrazole-3-carboxylic acid (4-fluoro-phenyl)-amide] it was under 20 µM; in that of `O=C(Nc1c[nH]nc1C(=O)Nc1ccc(F)cc1)c1ccc2ccccc2n1` [Example 49, Quinoline-2-carboxylic acid[3-(4-fluoro-phenylcarbamoyl)-1H-pyrazol-4-yl]-amide], under 100 µM. Same read-out and setting: the value for `O=C(Nc1c[nH]nc1C(=O)Nc1ccc(F)cc1)c1ccsc1` [Example 50, 4-[(Thiophene-3-carbonyl)-amino]-1H-pyrazole-3-carboxylic acid (4-fluoro-phenyl)-amide] was under 20 µM; that for `COc1cccc(C(=O)Nc2c[nH]nc2C(=O)Nc2ccc(F)cc2)c1F` [Example 51, 4-(2-fluoro-3-methoxy-benzoylamino)-1H-pyrazole-3-carboxylic acid (4-fluoro-phenyl)-amide] was under 100 µM. Take `O=C(Nc1c[nH]nc1C(=O)Nc1ccc(F)cc1)c1ccccc1OCCN1CCCC1` [Example 52, 4-[2-(2-Pyrrolidin-1-yl-ethoxy)-benzoylamino]-1H-pyrazole-3-carboxylic acid 4-fluorophenylamide]: the IC50 in assay [1] was under 20 µM.

As for `COc1cccc(OC)c1C(=O)Nc1c[nH]nc1C(=O)Nc1ccc(F)cc1` [Example 60], in assay [1], the IC50 is under 20 µM. As for `O=C(NC1CCOCC1)c1n[nH]cc1NC(=O)c1c(F)cccc1F` [Example 66], the half-inhibitory concentration (IC50) in assay [1] was under 20 µM.

In the case of `O=C(NCC1CCOCC1)c1n[nH]cc1NC(=O)c1c(F)cccc1F` [Example 67], in assay [1], the 50% inhibitory concentration (IC50) was under 20 µM. With `O=C(NCC1CCCCC1)c1n[nH]cc1NC(=O)c1c(F)cccc1F` [Example 69], the IC50 in assay [1] is under 20 µM. For the molecule `O=C(Nc1cccc(CO)c1)c1n[nH]cc1NC(=O)c1c(F)cccc1F` [Example 73], the IC50 in assay [1] was under 20 µM.

As for `O=C(Nc1cccc(CN2CCOCC2)c1)c1n[nH]cc1NC(=O)c1c(F)cccc1F` [Example 74], the IC50 in assay [1] was under 20 µM. The same measure, in the same setting: the value for `O=C(NC1CCCC1)c1n[nH]cc1NC(=O)c1c(F)cccc1F` [Example 75] was under 20 µM. In the case of `O=C(NCC1CC1)c1n[nH]cc1NC(=O)c1c(F)cccc1F` [Example 79], in assay [1], the IC50 was under 20 µM. Same read-out and setting: in the case of `Cc1[nH]nc(C(=O)Nc2ccc(F)cc2)c1NC(=O)c1c(F)cccc1F` [Example 80] it was under 20 µM; in that of `CCOC(=O)C1CCC(NC(=O)c2n[nH]cc2NC(=O)c2c(F)cccc2F)CC1` (centres unmarked) [Example 83A, 4-{[4-(2,6-difluoro-benzoylamino)-1H-pyrazole-3-carbonyl]-amino}-cyclohexanecarboxylic acid ethyl ester], under 20 µM; in that of `O=C(NC1CCN(Cc2ccccc2)C1)c1n[nH]cc1NC(=O)c1c(F)cccc1F` (centres unmarked) [Example 85], under 100 µM. Take `O=C(NCc1ccccn1)c1n[nH]cc1NC(=O)c1c(F)cccc1F` [Example 89]: the IC50 in assay [1] was under 100 µM. As for `O=C(NCc1ccccc1)c1n[nH]cc1NC(=O)c1c(F)cccc1F` [Example 90], the IC50 in assay [1] is under 20 µM. For the molecule `O=C(NCc1ccccc1Cl)c1n[nH]cc1NC(=O)c1c(F)cccc1F` [Example 91], the IC50 in assay [1] was under 20 µM.

In the case of `O=C(NCc1ccccc1F)c1n[nH]cc1NC(=O)c1c(F)cccc1F` [Example 92], the IC50 in assay [1] was under 20 µM.

Take `O=C(NC1CCC(O)CC1)c1n[nH]cc1NC(=O)c1c(F)cccc1F` (centres unmarked) [Example 95]: the IC50 in assay [1] is under 20 µM. With `CC(C)(C)OC(=O)N1CCCC(CNC(=O)c2n[nH]cc2NC(=O)c2c(F)cccc2F)C1` (centres unmarked) [Example 97], in assay [1], the IC50 was under 20 µM. As for `O=C(NCC1CCCNC1)c1n[nH]cc1NC(=O)c1c(F)cccc1F` (centres unmarked) [Example 98], the half-maximal inhibitory concentration (IC50) in assay [1] is under 20 µM.

In assay [2], `O=C(NC[C@H]1CC[C@H](NC(=O)c2n[nH]cc2NC(=O)c2c(F)cccc2F)CC1)OCc1ccccc1` [Example 130] had a half-maximal inhibitory concentration (IC50) of under 20 µM. Regarding `O=C(NC1CCNCC1)c1n[nH]cc1NC(=O)c1c(Cl)cccc1Cl` [Example 150], in assay [1], the IC50 was under 20 µM. `O=C(Nc1ccccc1)Nc1c[nH]nc1C(=O)N[C@H]1CC[C@H](O)CC1` [Example 156] returned an IC50 in assay [2] of under 20 µM. In the case of `O=C(Nc1cc(F)ccc1OCCN1CCCC1)c1n[nH]cc1NC(=O)c1c(F)cccc1F` [Example 166, 4-(2,6-Difluoro-benzoylamino)-1H-pyrazole-3-carboxylic acid[5-fluoro-2-(2-pyrrolidin-1-yl-ethoxy)-phenyl]-amide], the IC50 in assay [1] was under 20 µM. Consider `O=C(N[C@H]1CC[C@@H](N2CCOCC2)CC1)c1n[nH]cc1NC(=O)c1c(F)cccc1F` [Example 168], for which, in assay [2], the half-maximal inhibitory concentration (IC50) is under 20 µM. For the molecule `CC(C)(C)CNC(=O)Nc1c[nH]nc1C(=O)N[C@H]1CC[C@H](O)CC1` [Example 169], the IC50 in assay [2] was under 20 µM. In the case of `Cn1nc(C(C)(C)C)cc1C(=O)Nc1c[nH]nc1C(=O)NCC1CC1` [Example 183], in assay [1], the IC50 was under 100 µM. Consider `O=C(NC1CCNC1)c1n[nH]cc1NC(=O)c1c(F)cccc1F` (centres unmarked) [Example 185], for which the IC50 in assay [1] was under 20 µM. Consider `O=C(Nc1c[nH]nc1C(=O)NC1CCNCC1)c1cccc2c1OCCO2` [Example 192], for which the half-maximal inhibitory concentration (IC50) in assay [1] is under 20 µM. Turning to `O=C(NC1CCNCC1)c1n[nH]cc1NC(=O)c1cnn2ccccc12` [Example 193], the half-inhibitory concentration (IC50) in assay [1] was under 20 µM. Consider `COc1nc(Cl)cc(C)c1C(=O)Nc1c[nH]nc1C(=O)NC1CCNCC1` [Example 195], for which, in assay [1], the IC50 was under 20 µM. For the molecule `CN1CCC(NC(=O)c2n[nH]cc2NC(=O)c2c(F)cc(F)cc2F)CC1` [Example 205], the IC50 in assay [1] was under 20 µM.

On to `CN1CCN(NC(=O)c2n[nH]cc2NC(=O)c2c(Cl)cccc2Cl)CC1` [Example 207], for which, in assay [1], the IC50 is under 20 µM. On to `COC1CCC(NC(=O)c2n[nH]cc2NC(=O)c2c(Cl)cccc2Cl)CC1` (centres unmarked) [Example 210], for which the IC50 in assay [1] was under 20 µM. Consider `CN1CCN(c2cc(F)cc(C(=O)Nc3c[nH]nc3C(=O)NC3CCC(C(C)(C)C)CC3)c2)CC1` (centres unmarked) [Example 214], for which the IC50 in assay [1] is under 20 µM. The same measure, in the same setting: in the case of `O=C(N[C@@H]1CN2CCC1CC2)c1n[nH]cc1NC(=O)c1c(F)cccc1F` [Example 216] it was under 100 µM.

Take `O=C(Nc1cccnc1)c1n[nH]cc1NC(=O)c1c(Cl)cccc1Cl` [Example 218]: in assay [1], the 50% inhibitory concentration (IC50) was under 20 µM. As to `O=C(NC1CCN(CC2CCOC2)CC1)c1n[nH]cc1NC(=O)c1c(Cl)cccc1Cl` (centres unmarked) [Example 219], in assay [1], the IC50 is under 20 µM.

On to `O=C(Nc1ccncc1)c1n[nH]cc1NC(=O)c1c(Cl)cccc1Cl` [Example 220], for which the concentration for half-maximal inhibition (IC50) in assay [1] is under 20 µM. Consider `O=C(NC1CCN(C2CCOCC2)CC1)c1n[nH]cc1NC(=O)c1c(F)cccc1F` [Example 221], for which, in assay [1], the IC50 is under 20 µM.

As to `COc1cccc(F)c1C(=O)Nc1c[nH]nc1C(=O)Nc1cccnc1` [Example 222], the concentration for half-maximal inhibition (IC50) in assay [1] is under 20 µM. With `O=C(Nc1cccnc1)c1n[nH]cc1NC(=O)c1c(F)cccc1F` [Example 223], in assay [1], the IC50 is under 20 µM.
